Data: PMC6155603, “Synthesis and Preliminary Biological Evaluation of Indol-3-yl-oxoacetamides as Potent Cannabinoid Receptor Type 2 Ligands” (Molecules : A Journal of Synthetic Chemistry and Natural …, 2017)

Key:
human CB2 = target: T1, human CB2 (Homo sapiens, UniProt P34972); assay: radioligand inhibition binding assay, [^3H]WIN55.212-2, membranes of CHO cells stably transfected with human CB2
T1 construct: host or cells: CHO cells (stably transfected), membrane homogenates
Experimental: Non-specific binding was determined using 10 µM WIN55.212-2. The individual IC50 values were determined by non-linear curve fitting using GraphPad Prism software (version 3.0, GraphPhad, San Diego, CA, USA), and the corresponding Ki values calculated using the Cheng–Prusoff equation [44]. […] Additionally, the binding affinities towards the CB1 receptor were investigated for compounds 6 and 8 by using [^3H]CP55.40 as competitive radioligand.

human CB1 receptors = human CB1 receptors (Homo sapiens, UniProt P21554); assay: CB1 binding assay with [^3H]CP55.40 as competitive radioligand; conditions: no displacement of radioligand up to this concentration
Experimental: Non-specific binding was determined using 10 µM WIN55.212-2. The individual IC50 values were determined by non-linear curve fitting using GraphPad Prism software (version 3.0, GraphPhad, San Diego, CA, USA), and the corresponding Ki values calculated using the Cheng–Prusoff equation [44]. […] Additionally, the binding affinities towards the CB1 receptor were investigated for compounds 6 and 8 by using [^3H]CP55.40 as competitive radioligand. None of the two derivatives could displace [^3H]CP55.40 from the human CB1 receptors up to a concentration of 100 µM. Thus, within this series of fluoro-substituted compounds, the N-alkyl chain of compound 8 is most suitable to obtain high affinity binding at the CB2 receptor, combined with an excellent selectivity against the CB1 receptor subtype.

CB2 = conditions: reported value of lead molecule; cited from earlier work
CB1 = conditions: reported value of lead molecule; cited from earlier work

T1 sequence (P34972 whole entry): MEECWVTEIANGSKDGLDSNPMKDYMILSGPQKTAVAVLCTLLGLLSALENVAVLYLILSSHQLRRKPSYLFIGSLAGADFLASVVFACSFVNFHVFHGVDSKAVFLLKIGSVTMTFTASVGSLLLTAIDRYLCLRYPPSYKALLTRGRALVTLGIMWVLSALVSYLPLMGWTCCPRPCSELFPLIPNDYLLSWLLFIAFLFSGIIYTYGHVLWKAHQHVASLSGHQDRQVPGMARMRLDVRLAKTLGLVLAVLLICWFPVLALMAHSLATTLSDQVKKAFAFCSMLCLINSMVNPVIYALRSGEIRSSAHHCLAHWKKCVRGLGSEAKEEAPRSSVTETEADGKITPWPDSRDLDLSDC
Sequence of human CB1 receptors (P21554 whole entry): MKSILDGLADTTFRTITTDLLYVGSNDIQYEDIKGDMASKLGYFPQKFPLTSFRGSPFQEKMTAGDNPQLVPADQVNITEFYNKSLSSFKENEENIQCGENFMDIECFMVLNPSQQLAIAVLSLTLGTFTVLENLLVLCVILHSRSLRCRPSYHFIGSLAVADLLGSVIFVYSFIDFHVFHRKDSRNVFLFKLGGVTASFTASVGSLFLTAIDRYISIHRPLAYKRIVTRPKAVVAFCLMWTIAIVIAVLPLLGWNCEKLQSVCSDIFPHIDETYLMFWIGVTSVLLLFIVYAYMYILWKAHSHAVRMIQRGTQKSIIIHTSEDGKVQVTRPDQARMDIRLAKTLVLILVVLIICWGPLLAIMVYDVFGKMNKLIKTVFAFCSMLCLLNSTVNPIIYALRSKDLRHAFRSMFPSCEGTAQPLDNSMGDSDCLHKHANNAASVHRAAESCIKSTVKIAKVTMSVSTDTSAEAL

Row | Compound | Ki (human CB2) [nM] | concentration up to which [^3H]CP55.40 was not displaced from human CB1 receptors (human CB1 receptors) [µM] | Ki (CB2) [nM] | Ki (CB1) [nM]
1 | O=C(NC12CC3CC(CC(C3)C1)C2)C(=O)c1cn(CCOCCOCCF)c2ccc(-c3ccco3)cc12 [compound 6, N-(Adamantan-1-yl)-2-(1-(2-(2-(2-fluoroethoxy)ethoxy)ethyl)-5-(furan-2-yl)-1H-indol-3-yl)-2-oxoacetamide] | 27.3 | > 100 |  | 
2 | CCCCCn1cc(C(=O)C(=O)NC23CC4CC(CC(C4)C2)C3)c2cc(-c3ccco3)ccc21 [compound 5, N-(Adamantan-1-yl)-2-(5-(furan-2-yl)-1-pentyl-1H-indol-3-yl)-2-oxoacetamide] | 8.5 |  | 0.37 | 345
3 | O=C(NC12CC3CC(CC(C3)C1)C2)C(=O)c1cn(CCOCCF)c2ccc(-c3ccco3)cc12 [compound 8, N-(Adamantan-1-yl)-2-(1-(2-(2-fluoroethoxy)ethyl)-5-(furan-2-yl)-1H-indol-3-yl)-2-oxoacetamide] | 6.2 | > 100 |  | 
4 | COCCn1cc(C(=O)C(=O)NC23CC4CC(CC(C4)C2)C3)c2cc(-c3ccco3)ccc21 [compound 7, N-(Adamantan-1-yl)-2-(5-(furan-2-yl)-1-(2-methoxyethyl)-1H-indol-3-yl)-2-oxoacetamide] | 16.1 |  |  | 
